Test results: paper PMC11768083, “Crude Drugs for Clearing Heat Contain Compounds Exhibiting Anti-Inflammatory Effects in Interleukin-1β-Treated Rat Hepatocytes” (Molecules, 2025)
“Also recorded” adds a separate entry of the source. Where two headings read alike, the source gives them in different places.

Assays:
Tnf mRNA = test: RT-qPCR of Tnf mRNA in IL-1β-treated hepatocytes; type: cell-based, rat; conditions: with IL-1β; normalized to Ef1a mRNA; versus IL-1β alone
Protocol: (§1) After acclimatization, the Wistar rats were euthanized by the intraperitoneal administration of an anesthetic combination of medetomidine hydrochloride, midazolam, and butorphanol tartrate. Rat livers were used to prepare hepatocytes as previously described. In brief, the liver was perfused with collagenase. The cells were resuspended in Williams’ E (WE) medium supplemented with 10% newborn calf serum, 10 nM dexamethasone, and 10 nM human insulin and seeded at 1.2 ×10^6 cells per 35 mm diameter dish. After the medium was replaced with serum-free WE medium, the cells were incubated overnight. The next day, the medium was replaced with WE medium containing 1 nM recombinant rat IL-1β [54] and/or a fraction or compound. The hepatocytes were further incubated at 37 °C for 4 h before RNA extraction or for 8 h before measuring the NO levels and performing a Western blot analysis of the cell lysates.
(§2) Hepatocytes were lysed in Sepasol I Super G solution (Nacalai Tesque, Inc.) to extract total RNA, which was purified using an RNAqueous Kit and a TURBO DNA-free Kit (Applied Biosystems, Austin, TX, USA). The resulting RNA was converted to cDNA, which was amplified by PCR in triplicate with primers, SYBR Green I, and the Thermal Cycler Dice Real-Time System (Takara Bio Inc.). Ct values were calculated by the ΔΔCt method and then normalized to elongation factor 1α (Ef1a) mRNA [18, 54]. The mRNA levels normalized to the total RNA from the livers of the mice fed a diet alone were set at 100%.

[1] = test system: NO production in IL-1β-treated rat hepatocytes; test: NO production (nitrite, Griess method) in IL-1β-treated primary-cultured rat hepatocytes; type: cell-based; conditions: for IC50: Rattus norvegicus, Hepatocyte
Protocol: as §1
(§3) After 8 h of incubation with 1 nM IL-1β and/or a fraction or compound, nitrite (a stable metabolite of NO) was measured in triplicate using the Griess method. The NO concentration in the medium alone was set at 0%, whereas the concentration in the medium including IL-1β alone was set at 100%. […] Cytotoxicity was monitored by estimating the LDH activity in the medium using LDH Cytotoxicity Detection Kits (Takara Bio Inc., Kusatsu, Japan). The Griess reagent was added to the medium and incubated at 20–23 °C for 5 min, and the absorbance at 540 nm was measured to determine the decrease in nitrite. The LDH activity of the whole-cell extract was assumed to be 100%, whereas the LDH activity of the medium alone was assumed to have no cytotoxicity (i.e., less than 5% of the LDH activity of the whole-cell extract).

Il1r1 mRNA [2] = test: RT-qPCR of Il1r1 mRNA in IL-1β-treated hepatocytes; type: cell-based, rat; conditions: with IL-1β; normalized to Ef1a mRNA; versus IL-1β alone
Protocol: as §1
as §2, with “The mRNA levels normalized to the total RNA from the livers of the mice fed a diet alone were set at 100%.” left out

iNOS mRNA = test: RT-qPCR of iNOS mRNA in IL-1β-treated hepatocytes; type: cell-based, rat; conditions: with IL-1β; normalized to Ef1a mRNA; versus IL-1β alone
Protocol: as §1, §2

[3] = test system: primary-cultured rat hepatocytes; test: LDH activity in the hepatocyte medium (cytotoxicity); type: cell-based; conditions: for Cytotoxicity / LDH activity of the medium: hepatocytes, 8 h incubation; for LDH activity in the medium (cytotoxicity): at the concentrations of the NO assay, 8 h
Protocol: as §3

[4] = test system: NO production in IL-1β-treated rat hepatocytes; conditions: cited from earlier work
lymphotoxin β (Ltb) mRNA = test: RT-qPCR of Ltb mRNA in IL-1β-treated hepatocytes; type: cell-based, rat; conditions: with IL-1β, 4 h; normalized to Ef1a mRNA
Protocol: as §1
as §2, with “The mRNA levels normalized to the total RNA from the livers of the mice fed a diet alone were set at 100%.” left out

[5] = test system: iNOS antisense transcript (iNOS-AS); test: RT-qPCR of iNOS antisense transcript in IL-1β-treated hepatocytes; type: cell-based, rat; conditions: with IL-1β; RNA 3 h after addition
Protocol: as §1, with “The hepatocytes were further incubated at 37 °C for 4 h before RNA extraction or for 8 h before measuring the NO levels and performing a Western blot analysis of the cell lysates.” left out
as §2

[6] = test system: rat liver injuries caused by ischemia–reperfusion and partial hepatectomy; parameters: method as in PMID 38727775; conditions: cited from earlier work
iNOS protein = test: Immunoblot of iNOS protein in IL-1β-treated hepatocytes; type: cell-based, rat; conditions: with IL-1β, 8 h; β-tubulin control
Protocol: as §1
Hepatocyte lysates were prepared, resolved on a 10% sodium dodecyl sulfate–polyacrylamide gel, and transferred onto a membrane, as previously described. […] The protein of interest was visualized by ECL Western blotting Detection Reagents (Cytiva, Tokyo, Japan) and detected using an Amersham Imager 600 (Cytiva).

[7] = test system: iNOS antisense transcript (iNOS-AS); parameters: method as in PMID 28681120, doi:10.7243/2050-0874-1-2, PMID 27774888; conditions: cited from earlier work
Il1r1 mRNA [8] = conditions: cited from earlier work
[9] = test system: LPS-treated RAW264.7 cells; parameters: method as in PMID 38339007; conditions: read-out: IC50 for NO production; cited from earlier work
[10] = 1 nM IL-1β, 8 h, means ± SDs, at least three experiments, read-out: IC50 (μM) for NO production in IL-1β-stimulated hepatocytes
[11] = constituents of Atractylodes chinensis rhizomes
[12] = means ± SDs, read-out: IC50 (μM) for NO production in IL-1β-stimulated hepatocytes

SMILES: COc1cc(C2OCC3C(c4ccc(OC)c(OC)c4)OCC23)ccc1O (single isomer, unassigned; (+)) [(+)-Phillygenin, (+)-phillygenin]
- Tnf mRNA level (Tnf mRNA): decreased
- IC50 [1, 10]: 193 ± 47.6 µM
- Il1r1 mRNA level (Il1r1 mRNA [2]): decreased
- iNOS mRNA level (iNOS mRNA): decreased
- Cytotoxicity / LDH activity of the medium [3]: background LDH activity at concentrations up to 300 μM; also recorded: without showing cytotoxicity

SMILES: CC1=CCC[C@H](C)[C@@]12CC[C@@H](C(C)(C)O)C2 [(+)-hinesol]
- IC50 for inhibition of NO production in hepatocytes [4, 11]: could not be calculated

SMILES: C=C[C@H](/C=C\c1ccc(O)cc1)c1ccc(O)cc1 [(−)-Nyasol, (−)-nyasol]
- Tnf mRNA level (Tnf mRNA): significantly reduced
- IC50 [1, 10]: 18.3 ± 2.99 µM
- Ltb mRNA level (lymphotoxin β (Ltb) mRNA): significantly reduced
- iNOS mRNA level (iNOS mRNA): significantly decreased
- LDH activity in the medium (cytotoxicity) [3]: < 5 % of the activity of the whole-cell extract

SMILES: O=c1cc(-c2ccccc2)oc2cc(O)c(O)c(O)c12 [Baicalein, baicalein]
- iNOS-AS level [5]: inhibited iNOS-AS in a concentration-dependent manner
- Liver injury [6]: attenuated
- IC50 [1, 10]: 16.8 ± 7.93 µM
- iNOS protein level (iNOS protein): reduced
- iNOS mRNA level (iNOS mRNA): reduced
- LDH activity in the medium (cytotoxicity) [3]: < 5 % of the activity of the whole-cell extract

SMILES: O=C(O)[C@H]1O[C@@H](Oc2cc3oc(-c4ccccc4)cc(=O)c3c(O)c2O)[C@H](O)[C@@H](O)[C@@H]1O [Baicalin]
- IC50 relative to that of baicalein ([1]; IL-1β-treated hepatocytes, greater than baicalein): 3.3 fold
- IC50 ([1]; authors' unpublished data (A.F., K.I., M.N.), read-out: IC50 for NO production in IL-1β-treated hepatocytes): 55 µM

SMILES: COc1ccc2cc3[n+](cc2c1OC)CCc1cc2c(cc1-3)OCO2 [Berberine]
- IC50 [4, 12]: 12 ± 3.4 µM

SMILES: O=C(/C=C/c1ccc(O)c(O)c1)O[C@@H]1C[C@](O)(C(=O)O)C[C@@H](O)[C@H]1O [Chlorogenic acid]
- iNOS-AS level [7]: reducing iNOS-AS
- IC50 [4, 12]: 652 ± 114 µM

SMILES: COC(=O)C1=CO[C@@H](O)[C@@H]2C(CO)=CC[C@H]12 [Genipin, genipin]
- iNOS-AS level [7]: reducing iNOS-AS
- IC50 [1, 10]: 4.4 ± 0.85 µM

SMILES: O=c1cc(-c2ccc(Oc3ccc(-c4cc(=O)c5c(O)cc(O)cc5o4)cc3O)cc2)oc2cc(O)cc(O)c12 [Loniflavone, loniflavone]
- Tnf mRNA level (Tnf mRNA): decreased
- IC50 [1, 10]: 1.64 ± 0.17 µM
- Il1r1 mRNA level (Il1r1 mRNA [2]): significantly decreased
- iNOS mRNA level (iNOS mRNA): decreased
- Cytotoxicity / LDH activity of the medium [3]: Cytotoxicity was not observed

SMILES: CC1(C)OC(=O)C=C[C@]2(C)[C@H]3CC[C@@]4(C)[C@H](c5ccoc5)OC(=O)[C@H]5O[C@]54[C@]3(C)C(=O)C[C@@H]12 [Obakunone]
- iNOS-AS level [7]: reducing iNOS-AS
- IC50 [4, 12]: 2.6 ± 1.1 µM

SMILES: COc1cc(O)c2c(c1)O[C@H](c1ccc(O)cc1)CC2=O [Sakuranetin, (S)-(–)-4′,5-dihydroxy-7-methoxyflavanone]
- Il1r1 gene expression (Il1r1 mRNA [8]): decreases

SMILES: CC(=O)Oc1ccccc1C(=O)O [aspirin]
- Il1r1 gene expression (Il1r1 mRNA [8]; rat hepatocytes): suppress

SMILES: C/C=C/C#CC#C/C=C/c1ccco1 [atractylodin]
- IC50 ([4]; constituents of Atractylodes chinensis rhizomes, read-out: IC50 for inhibition of NO production in hepatocytes): 8.25 µM

SMILES: C=C(C)[C@@H]1CC[C@]2(C(=O)O)CC[C@]3(C)[C@H](CC[C@@H]4[C@@]5(C)CC[C@H](O)C(C)(C)[C@@H]5CC[C@]43C)[C@@H]12 [betulinic acid, reference compound]
- Cytotoxicity / LDH activity of the medium [3]: increased LDH activity in a concentration-dependent manner

SMILES: COC(=O)C1=CO[C@@H](O[C@@H]2O[C@H](CO)[C@@H](O)[C@H](O)[C@H]2O)[C@@H]2C(CO)=CC[C@H]12 [geniposide]
- IC50 [9]: 136 µM
- Effect on IL-1β-induced NO production ([1]; IL-1β-treated hepatocytes): did not decrease NO production
- Inhibition of NO production ([1]; up to a final concentration of 800 μM): did not inhibit NO production

SMILES: CC(C(=O)O)c1ccc(CC2CCCC2=O)cc1 (centres unmarked) [loxoprofen]
- Il1r1 gene expression (Il1r1 mRNA [8]; rat hepatocytes): suppress

SMILES: CC1(C)CC[C@]2(C(=O)O)CC[C@]3(C)C(=CC[C@@H]4[C@@]5(C)CC[C@H](O)C(C)(C)[C@@H]5CC[C@]43C)[C@@H]2C1 [oleanolic acid, reference compound]
- Cytotoxicity / LDH activity of the medium [3]: increased LDH activity in a concentration-dependent manner

SMILES: C=C1CCC[C@]2(C)CC[C@@H](C(C)(C)O)C[C@@H]12 [β-eudesmol]
- IC50 for inhibition of NO production in hepatocytes [4, 11]: could not be calculated
